According to BigSolDB 2.1:

SMILES: Cc1cc(C)nc(Nc2ccccc2)n1
- solubility (mole fraction) (in cyclohexane, 283.15 K): 0.00583
- solubility (mole fraction) (in cyclohexane, 288.15 K): 0.00751
- solubility (mole fraction) (in cyclohexane, 293.15 K): 0.0095
- solubility (mole fraction) (in cyclohexane, 298.15 K): 0.0123
- solubility (mole fraction) (in cyclohexane, 303.15 K): 0.0157
- solubility (mole fraction) (in cyclohexane, 308.15 K): 0.0213
- solubility (mole fraction) (in cyclohexane, 313.15 K): 0.0304
- solubility (mole fraction) (in cyclohexane, 318.15 K): 0.0435
- solubility (mole fraction) (in cyclohexane, 323.15 K): 0.0614
- solubility (mole fraction) (in ethanol, 283.15 K): 0.0146
- solubility (mole fraction) (in ethanol, 288.15 K): 0.0175
- solubility (mole fraction) (in ethanol, 293.15 K): 0.0211
- solubility (mole fraction) (in ethanol, 298.15 K): 0.0267
- solubility (mole fraction) (in ethanol, 303.15 K): 0.0332
- solubility (mole fraction) (in ethanol, 308.15 K): 0.0438
- solubility (mole fraction) (in ethanol, 313.15 K): 0.0577
- solubility (mole fraction) (in ethanol, 318.15 K): 0.0785
- solubility (mole fraction) (in ethanol, 323.15 K): 0.112
- solubility (mole fraction) (in isobutanol, 283.15 K): 0.0148
- solubility (mole fraction) (in isobutanol, 288.15 K): 0.0178
- solubility (mole fraction) (in isobutanol, 293.15 K): 0.0236
- solubility (mole fraction) (in isobutanol, 298.15 K): 0.028
- solubility (mole fraction) (in isobutanol, 303.15 K): 0.0345
- solubility (mole fraction) (in isobutanol, 308.15 K): 0.0454
- solubility (mole fraction) (in isobutanol, 313.15 K): 0.0652
- solubility (mole fraction) (in isobutanol, 318.15 K): 0.0937
- solubility (mole fraction) (in isobutanol, 323.15 K): 0.13
- solubility (mole fraction) (in isopropanol, 283.15 K): 0.0103
- solubility (mole fraction) (in isopropanol, 288.15 K): 0.0126
- solubility (mole fraction) (in isopropanol, 293.15 K): 0.016
- solubility (mole fraction) (in isopropanol, 298.15 K): 0.0198
- solubility (mole fraction) (in isopropanol, 303.15 K): 0.025
- solubility (mole fraction) (in isopropanol, 308.15 K): 0.0324
- solubility (mole fraction) (in isopropanol, 313.15 K): 0.0429
- solubility (mole fraction) (in isopropanol, 318.15 K): 0.0611
- solubility (mole fraction) (in isopropanol, 323.15 K): 0.0861
- solubility (mole fraction) (in methanol, 283.15 K): 0.0138
- solubility (mole fraction) (in methanol, 288.15 K): 0.0162
- solubility (mole fraction) (in methanol, 293.15 K): 0.0193
- solubility (mole fraction) (in methanol, 298.15 K): 0.0245
- solubility (mole fraction) (in methanol, 303.15 K): 0.0311
- solubility (mole fraction) (in methanol, 308.15 K): 0.0418
- solubility (mole fraction) (in methanol, 313.15 K): 0.0568
- solubility (mole fraction) (in methanol, 318.15 K): 0.0765
- solubility (mole fraction) (in methanol, 323.15 K): 0.107
- solubility (mole fraction) (in n-butanol, 283.15 K): 0.0193
- solubility (mole fraction) (in n-butanol, 288.15 K): 0.0251
- solubility (mole fraction) (in n-butanol, 293.15 K): 0.0317
- solubility (mole fraction) (in n-butanol, 298.15 K): 0.0389
- solubility (mole fraction) (in n-butanol, 303.15 K): 0.0498
- solubility (mole fraction) (in n-butanol, 308.15 K): 0.0638
- solubility (mole fraction) (in n-butanol, 313.15 K): 0.0813
- solubility (mole fraction) (in n-butanol, 318.15 K): 0.112
- solubility (mole fraction) (in n-butanol, 323.15 K): 0.145
- solubility (mole fraction) (in n-propanol, 283.15 K): 0.0179
- solubility (mole fraction) (in n-propanol, 288.15 K): 0.0215
- solubility (mole fraction) (in n-propanol, 293.15 K): 0.0264
- solubility (mole fraction) (in n-propanol, 298.15 K): 0.0316
- solubility (mole fraction) (in n-propanol, 303.15 K): 0.037
- solubility (mole fraction) (in n-propanol, 308.15 K): 0.0481
- solubility (mole fraction) (in n-propanol, 313.15 K): 0.0682
- solubility (mole fraction) (in n-propanol, 318.15 K): 0.0971
- solubility (mole fraction) (in n-propanol, 323.15 K): 0.131
